What was measured:
[1] = target: T1, Albumin (Homo sapiens, UniProt P02768); assay: Binding affinity to human serum albumin at 289 kelvin by fluorescence quenching measurement in presence of Al3+ ions; type: ADME; conditions: isolated protein
[2] = target: T1, Albumin; assay: Binding affinity to human serum albumin at 289 kelvin by fluorescence quenching measurement in presence of [SO4]2- ions; type: ADME; conditions: isolated protein
[3] = target: T1, Albumin; assay: Binding affinity to human serum albumin at 289 kelvin by fluorescence quenching measurement in presence of Pb2+ ions; type: ADME; conditions: isolated protein
[4] = target: T1, Albumin; assay: Binding affinity to human serum albumin at 289 kelvin by fluorescence quenching measurement in presence of Ca2+ ions; type: ADME; conditions: isolated protein
[5] = target: T1, Albumin; assay: Binding affinity to human serum albumin at 309 kelvin by fluorescence quenching measurement; type: ADME; conditions: isolated protein
[6] = target: T1, Albumin; assay: Binding affinity to human serum albumin at 289 kelvin by fluorescence quenching measurement in presence of F- ions; type: ADME; conditions: isolated protein
[7] = target: T1, Albumin; assay: Binding affinity to human serum albumin at 289 kelvin by fluorescence quenching measurement in presence of [CO3]2- ions; type: ADME; conditions: isolated protein
[8] = target: T1, Albumin; assay: Binding affinity to human serum albumin at 289 kelvin by fluorescence quenching measurement in presence of Bi3+ ions; type: ADME; conditions: isolated protein
[9] = target: T1, Albumin; assay: Binding affinity to human serum albumin at 289 kelvin by fluorescence quenching measurement in presence of [NO3]- ions; type: ADME; conditions: isolated protein
[10] = target: T1, Albumin; assay: Binding affinity to human serum albumin at 299 kelvin by fluorescence quenching measurement; type: ADME; conditions: isolated protein
[11] = target: T1, Albumin; assay: Binding affinity to human serum albumin at 289 kelvin by fluorescence quenching measurement in presence of [Sio3]2- ions; type: ADME; conditions: isolated protein
[12] = target: T1, Albumin; assay: Binding affinity to human serum albumin at 289 kelvin by fluorescence quenching measurement in presence of Zn2+ ions; type: ADME; conditions: isolated protein
[13] = target: T1, Albumin; assay: Binding affinity to human serum albumin at 289 kelvin by fluorescence quenching measurement in presence of Hg2+ ions; type: ADME; conditions: isolated protein
[14] = target: T1, Albumin; assay: Binding affinity to human serum albumin at 289 kelvin by fluorescence quenching measurement in presence of Cd2+ ions; type: ADME; conditions: isolated protein
[15] = target: T1, Albumin; assay: Binding affinity to human serum albumin at 289 kelvin by fluorescence quenching measurement in presence of Ni2+ ions; type: ADME; conditions: isolated protein
[16] = target: T1, Albumin; assay: Binding affinity to human serum albumin at 289 kelvin by fluorescence quenching measurement in presence of K+ ions; type: ADME; conditions: isolated protein
[17] = target: T1, Albumin; assay: Binding affinity to human serum albumin at 289 kelvin by fluorescence quenching measurement in presence of Fe3+ ions; type: ADME; conditions: isolated protein
[18] = target: T1, Albumin; assay: Binding affinity to human serum albumin at 289 kelvin by fluorescence quenching measurement; type: ADME; conditions: isolated protein
[19] = target: T1, Albumin; assay: Binding affinity to human serum albumin at 289 kelvin by fluorescence quenching measurement in presence of Mg2+ ions; type: ADME; conditions: isolated protein
[20] = system: K562; assay: Anticancer activity against human K562 cells; type: functional, cell-based

T1 sequence (P02768 whole entry): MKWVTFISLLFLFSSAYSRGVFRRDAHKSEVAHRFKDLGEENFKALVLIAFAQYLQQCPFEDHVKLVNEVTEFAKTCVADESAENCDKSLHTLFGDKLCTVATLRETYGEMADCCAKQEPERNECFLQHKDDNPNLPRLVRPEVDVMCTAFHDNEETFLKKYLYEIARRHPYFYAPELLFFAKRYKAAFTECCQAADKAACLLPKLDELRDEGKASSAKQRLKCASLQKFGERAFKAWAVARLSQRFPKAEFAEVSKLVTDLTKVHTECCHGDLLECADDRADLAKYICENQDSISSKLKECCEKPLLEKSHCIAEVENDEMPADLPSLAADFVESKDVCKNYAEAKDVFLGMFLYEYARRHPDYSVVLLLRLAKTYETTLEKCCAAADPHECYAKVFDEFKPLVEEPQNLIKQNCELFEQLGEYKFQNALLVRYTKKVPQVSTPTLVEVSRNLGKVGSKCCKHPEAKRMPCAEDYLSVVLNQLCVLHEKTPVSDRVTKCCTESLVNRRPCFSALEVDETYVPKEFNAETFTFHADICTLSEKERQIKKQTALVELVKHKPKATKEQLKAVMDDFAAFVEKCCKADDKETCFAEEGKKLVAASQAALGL

K [1] [×10⁶ L/mol]	K [2] [×10⁶ L/mol]	K [3] [×10⁶ L/mol]	K [4] [×10⁶ L/mol]	K [5] [L/mol]	K [6] [×10⁶ L/mol]	K [7] [×10⁶ L/mol]	K [8] [×10⁶ L/mol]	K [9] [×10⁶ L/mol]	K [10] [L/mol]	K [11] [×10⁶ L/mol]	K [12] [×10⁶ L/mol]	K [13] [×10⁶ L/mol]	K [14] [×10⁶ L/mol]	K [15] [×10⁶ L/mol]	K [16] [×10⁶ L/mol]	K [17] [×10⁶ L/mol]	K [18] [L/mol]	K [19] [×10⁶ L/mol]	IC50 [20] [µM]	SMILES
3.93	4.33	4.87	7.17	145000	8.78	3.48	7.01	3.4	195000	6.68	7.12	8.41	4.56	5.32	8.9	3.48	231000	4.76	–	CN1C(=O)c2c(c3c4ccccc4n([C@@H]4O[C@H](CO)[C@@H](O)[C@H](O)[C@H]4O)c3c3[nH]c4ccccc4c23)C1=O
–	–	–	–	–	–	–	–	–	–	–	–	–	–	–	–	–	–	–	4	CO[C@H]1[C@H](O)[C@@H](O)[C@H](n2c3c(Cl)cccc3c3c4c(c5c6cccc(Cl)c6[nH]c5c32)C(=O)NC4=O)O[C@@H]1CO [REBECCAMYCIN]
